“And” between values parts separate entries of the source, which are not always exact repeats. Equal entries are not always repeated. Structures can show the parent of a compound that is named as a salt.
Tests used:
male ddy mice = test: Effect on KCN-induced mortality in mice; conditions: mouse, in vivo; hydrochloride
[1] = system: pyramidal cells in the CA1 region of the gerbil hippocampus; test: Effect on ischemia-induced neuronal damage in the gerbil hippocampus; format: in vivo; conditions: i.p., one hour before 5-min ischemia, normal pyramidal cells in 0.105 x 1.175 mm² of CA1, one week later
Excerpt: Effect on ischemia-induced neuronal damage in the gerbil hippo- campus
Kirino reported that a brief cerebral ischemia caused the destruction of the pyramidal cells in the CA1 region of the gerbil hippocampus [Brain Res. 239: 57-69 (1982)]. Effect of the compound(B) on this ischemia-induced neuronal damage was examined.
The compounds were intraperitoneally administered to each animal and one hour later 5-min ischemia was produced by clamping both common carotid arteries. One week after the 5-min ischemia gerbils were fixed by transcardiac perfusion of fixative which consisted of 4% formaldehyde in phosphate buffer (pH 7.4). The fixed brain was embedded in paraffin and semi-thin (3 µm) sections were cut at a level of the dorsal hippocampus. The sections were stained with feulgen for cell counting by an image-analyzing computer. Normal pyramidal cells in the area of 0.105 x 1.175 mm² were counted.

Compound	Survival time (sec) mean ± SEM (male ddy mice)	neuronal density mean ± SEM ([1]; 1 mg/kg)	neuronal density mean ± SEM ([1]; 3 mg/kg)	neuronal density mean ± SEM ([1]; 10 mg/kg)	neuronal density mean ± SEM ([1]; 30 mg/kg)
O=C(c1ccc(F)cc1)C1CCN(C[C@@H](O)c2ccc3ccccc3c2)CC1 [d-isomer of compound (B), hydrochloride]	52.4 ± 2.4 s and 50.1 ± 1.6 s and 62.5 ± 4.4 s	9.3 ± 4.6	16.5 ± 4.0	34.6 ± 1.1	–
(R)-(-)-2-[4-(p-Fluorobenzoyl)-1-piperidylj-1-naphthylethanol hydrochloride [ℓ-isomer of compound (B)]	40.2 ± 1.8 s and 43.0 ± 1.8 s and 44.8 ± 1.9 s	–	1.9 ± 0.5	17.2 ± 5.2	12.0 ± 3.4

Source: patent EP0409236A1, “Optically active naphthylethanol derivative” (Eisai Co., Ltd., priority 1989, dated 1991)
